Experimental data: patent US20150368248A1, “2-SUBSTITUTED-6-BIARYLMETHYLAMINO-9-CYCLOPENTYL-9H-PURINE DERIVATIVES, USE THEREOF AS MEDICAMENTS, AND PHARMACEUTICAL COMPOSITIONS” (UNIVERZITA PALACKEHO V OLOMOUCI, priority 2013, published 2015)
Read-outs that look alike come from different tables or passages of the source.

Experiments:
Hep3B = assay: MTT cytotoxicity assay (Example 30); type: cell-based, human; settings: Homo sapiens, Hep3B, 72 h; MTT, three days after drug addition; read-out: Inhibitory concentration IC50, Hep3B
[1] = test system: human umbilical vein endothelial cells (HUVECs); assay: Migration scratch assay; type: cell-based; parameters: key to Wound area: ++: open; +: partly open; 0: closed; settings: for Wound area: 24 h; for inhibition of migration (in words): 24 h treatment
Protocol: Migration assay was performed as described previously (Krystof et al., 2011, Eur J Med Chem.; 46(9):4289-94). Briefly, confluent HUVECs were scratched and immediately treated for 24 h with various doses of compounds. After incubation each well was photographed using a DP Controller system (Olympus) connected to a Olympus BX50 microscope. Migration was expressed as the proportion of pixels of the wound area in the image that were not covered by cells using “in house” software.

HUVEC cells = assay: Tube formation assay on Matrigel; type: cell-based, human; settings: 24 h treatment
Protocol: For an evaluation of tube formation, HUVEC cells in endothelial cell growth medium (ECGM) containing tested compound were seeded onto Matrigel® (BD) coated ibidi angiogenesis slides (15-well, ibidi GmbH, Munich, Germany). After 24 h, images were taken using the Olympus BX50 miscoscope with DP Controller system. Evaluation of formation of tubes was expressed as a number of tubes and number of nodes of treated cells compared with untreated control using specific “in house” software.

CDK7/cyclin H/MAT1 = target: T1, CDK7/cyclin H/MAT1 (Homo sapiens, UniProt P50613); assay: Kinase inhibition assay, recombinant kinase, [γ-33P]ATP; type: biochemical; settings: read-out: Residual kinase activity, CDK7; for remaining activity at 0.1 µM: 100 nM; for remaining activity at 1 µM: 1000 nM
T1 construct: purchased ProQinase GmbH (Freiburg, Germany)
Protocol: (§1) CDK2/Cyclin E kinase was produced in Sf9 insect cells via baculoviral infection and purified on a NiNTA column (Qiagen). CDK5/p35, CDK7Cyclin H/MAT1 and CDK9/Cyclin T1 was purchased from ProQinase GmbH. The kinase reactions were assayed with 1 mg/mL histone H1 (for CDK2 and CDK5) or (YSPTSPS)2KK peptide (for CDK7 and CDK9) in the presence of 15/0.15/1.5/1.5 μM ATP (for CDK2/CDK5/CDK7CDK9), 0.05 μCi [γ-^33P]ATP and of the test compound in a final volume of 10 μL, all in a reaction buffer (60 mM HEPES-NaOH, pH 7.5, 3 mM MgCl2, 3 mM MnCl2, 3 μM Na-orthovanadate, 1.2 mM DTT, 2.5 μg/50 μl PEG20,000). The reactions were stopped by adding 5 μL of 3% aq H3PO4. Aliquots were spotted onto P-81 phosphocellulose (Whatman), washed 3× with 0.5% aq H3PO4 and finally air-dried.
(§2) CDK1/cyclin B and CDK2/cyclin E kinases were produced in Sf9 insect cells via baculoviral infection, while CDK5/p35, CDK7/cyclin H/MAT1, and CDK9/cyclin T1 were purchased from ProQinase (Freiburg, Germany) and assayed as described previously (35). The kinase reactions were assayed with 1 mg/ml histone H1 (for CDK2 and CDK5) or (YSPTSPS)2KK peptide (for CDK7 and CDK9) in the presence of 15/0.15/1.5/1.5 […] ATP (for CDK2/CDK5/CDK7CDK9), […] [γ-^33P]ATP and of the test compound in a final volume of […]. The reaction buffer contained 60 mM HEPES-NaOH, pH 7.5, 3 mM MgCl2, 3 mM MnCl2, 3 mM Na-orthovanadate, 1.2 mM DTT, 2.5 mg/50 ml PEG20.000. The reactions were stopped by adding […] of 3% H3PO4. Aliquots were spotted onto P-81 phosphocellulose (Whatman, GE Healthcare Biosciences, Pittsburgh, USA), washed 3 times with 0.5% H3PO4 and finally air-dried. Kinase inhibition was quantified using a FLA-7000 digital image analyzer (Fujifilm, Tokyo, Japan).

CDK5/p35 = target: T2, CDK5/p35 (Homo sapiens, UniProt Q00535); assay: as above; type: biochemical; settings: read-out: Residual kinase activity, CDK5; for remaining activity at 0.1 µM: 100 nM; for remaining activity at 1 µM: 1000 nM
T2 construct: purchased ProQinase GmbH (Freiburg, Germany)
Protocol: as §1, §2

CDK9/Cyclin T1 = target: T3, CDK9/Cyclin T1 (Homo sapiens, UniProt P50750); assay: as above; type: biochemical; settings: for remaining activity at 0.1 µM: 100 nM; for remaining activity at 0.1 µM / remaining activity at 1 µM: read-out: Residual kinase activity, CDK9; for remaining activity at 1 µM: 1000 nM
T3 construct: purchased ProQinase GmbH (Freiburg, Germany)
Protocol: as §1, §2

CDK1/cyclin B = target: T4, CDK1/cyclin B (Homo sapiens, UniProt P06493); assay: as above; type: biochemical
T4 construct: made in house; host or cells: Sf9 insect cells (baculovirus)
Protocol: CDK2/Cyclin E kinase was produced in Sf9 insect cells via baculoviral infection and purified on a NiNTA column (Qiagen). CDK5/p35, CDK7Cyclin H/MAT1 and CDK9/Cyclin T1 was purchased from ProQinase GmbH. […] The reactions were stopped by adding 5 μL of 3% aq H3PO4. Aliquots were spotted onto P-81 phosphocellulose (Whatman), washed 3× with 0.5% aq H3PO4 and finally air-dried.
as §2

[2] = test system: human umbilical vein endothelial cells (HUVEC); assay: HUVEC proliferation, Calcein AM; type: cell-based; settings: Homo sapiens, HUVEC, read-out: Inhibitory concentration for HUVEC cells - IC50
Procedure, shortened: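 Confluent HUVECs seeded in 96-well plates and exposed to compound for 24 or 72 h. Proliferation read by Calcein AM fluorescence.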

[3] = read-out: Kinase inhibition IC50, CDK1

T4 sequence (P06493 whole entry, species assumed): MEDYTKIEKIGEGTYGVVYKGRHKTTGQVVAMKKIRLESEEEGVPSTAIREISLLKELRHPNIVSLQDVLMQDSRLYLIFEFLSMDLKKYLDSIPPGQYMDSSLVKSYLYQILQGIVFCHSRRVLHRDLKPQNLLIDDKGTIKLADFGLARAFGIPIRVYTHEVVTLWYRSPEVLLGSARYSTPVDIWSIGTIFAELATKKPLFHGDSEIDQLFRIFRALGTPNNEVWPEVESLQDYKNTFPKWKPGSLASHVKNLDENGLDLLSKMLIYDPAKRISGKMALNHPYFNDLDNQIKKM
T4 sequence (P14635 whole entry partner, species assumed): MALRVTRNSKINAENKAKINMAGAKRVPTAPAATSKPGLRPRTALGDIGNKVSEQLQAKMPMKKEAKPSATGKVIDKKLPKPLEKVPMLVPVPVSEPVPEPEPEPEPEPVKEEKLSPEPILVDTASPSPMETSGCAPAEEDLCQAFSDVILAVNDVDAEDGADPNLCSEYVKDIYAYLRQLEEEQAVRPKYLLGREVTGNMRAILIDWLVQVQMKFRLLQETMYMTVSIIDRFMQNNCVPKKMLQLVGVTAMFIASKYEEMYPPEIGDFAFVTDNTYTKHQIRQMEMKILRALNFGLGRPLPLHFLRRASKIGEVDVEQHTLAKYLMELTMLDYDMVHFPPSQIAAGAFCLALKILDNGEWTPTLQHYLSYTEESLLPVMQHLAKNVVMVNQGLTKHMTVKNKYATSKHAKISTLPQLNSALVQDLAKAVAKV
T3 sequence (P50750 whole entry): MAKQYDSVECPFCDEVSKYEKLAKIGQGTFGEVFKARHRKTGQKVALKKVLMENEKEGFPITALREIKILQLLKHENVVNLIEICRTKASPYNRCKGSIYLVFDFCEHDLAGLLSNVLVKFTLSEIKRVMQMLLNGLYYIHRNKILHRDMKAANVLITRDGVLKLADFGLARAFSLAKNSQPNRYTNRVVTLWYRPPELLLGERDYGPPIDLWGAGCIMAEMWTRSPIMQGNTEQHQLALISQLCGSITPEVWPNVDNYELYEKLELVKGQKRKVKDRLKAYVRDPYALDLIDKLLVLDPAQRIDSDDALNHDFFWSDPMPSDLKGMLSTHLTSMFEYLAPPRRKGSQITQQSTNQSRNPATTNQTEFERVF
T3 sequence (O60563 whole entry partner): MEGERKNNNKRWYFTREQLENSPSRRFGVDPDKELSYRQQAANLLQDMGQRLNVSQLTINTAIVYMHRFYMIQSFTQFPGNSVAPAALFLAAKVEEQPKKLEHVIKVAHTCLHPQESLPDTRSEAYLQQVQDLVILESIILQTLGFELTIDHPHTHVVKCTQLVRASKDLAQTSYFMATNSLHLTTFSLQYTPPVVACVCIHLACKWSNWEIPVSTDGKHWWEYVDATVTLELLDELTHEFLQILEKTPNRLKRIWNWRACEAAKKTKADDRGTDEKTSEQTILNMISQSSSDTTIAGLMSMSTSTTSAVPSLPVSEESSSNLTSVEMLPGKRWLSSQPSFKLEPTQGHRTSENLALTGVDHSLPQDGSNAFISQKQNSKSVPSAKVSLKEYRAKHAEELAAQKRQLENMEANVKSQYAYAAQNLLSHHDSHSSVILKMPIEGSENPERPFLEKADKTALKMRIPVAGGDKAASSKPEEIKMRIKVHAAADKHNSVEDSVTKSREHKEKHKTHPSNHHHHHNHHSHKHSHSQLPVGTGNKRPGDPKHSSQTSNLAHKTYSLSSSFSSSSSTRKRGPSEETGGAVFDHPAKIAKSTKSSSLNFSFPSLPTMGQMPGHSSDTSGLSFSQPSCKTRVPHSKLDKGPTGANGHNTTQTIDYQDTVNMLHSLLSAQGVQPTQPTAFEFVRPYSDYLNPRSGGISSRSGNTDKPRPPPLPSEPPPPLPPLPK
T1 sequence (P50613 whole entry): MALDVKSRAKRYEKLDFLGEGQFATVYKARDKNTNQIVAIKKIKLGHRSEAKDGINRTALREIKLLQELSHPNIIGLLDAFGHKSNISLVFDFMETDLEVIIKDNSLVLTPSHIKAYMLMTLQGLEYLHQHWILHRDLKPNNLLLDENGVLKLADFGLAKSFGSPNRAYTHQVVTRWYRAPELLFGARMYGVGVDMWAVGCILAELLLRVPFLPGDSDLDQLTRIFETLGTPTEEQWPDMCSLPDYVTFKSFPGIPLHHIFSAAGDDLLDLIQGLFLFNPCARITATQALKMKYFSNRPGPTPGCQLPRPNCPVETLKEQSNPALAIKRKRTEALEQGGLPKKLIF
T1 sequence (P51946 whole entry partner): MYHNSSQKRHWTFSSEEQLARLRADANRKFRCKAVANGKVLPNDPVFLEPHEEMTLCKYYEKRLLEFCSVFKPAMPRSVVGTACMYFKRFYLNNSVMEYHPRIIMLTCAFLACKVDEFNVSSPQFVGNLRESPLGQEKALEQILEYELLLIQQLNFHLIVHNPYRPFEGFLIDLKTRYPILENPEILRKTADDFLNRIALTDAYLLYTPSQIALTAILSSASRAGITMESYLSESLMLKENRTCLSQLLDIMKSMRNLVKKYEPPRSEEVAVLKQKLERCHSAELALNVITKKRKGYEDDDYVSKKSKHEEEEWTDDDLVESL
T1 sequence (P51948 whole entry partner): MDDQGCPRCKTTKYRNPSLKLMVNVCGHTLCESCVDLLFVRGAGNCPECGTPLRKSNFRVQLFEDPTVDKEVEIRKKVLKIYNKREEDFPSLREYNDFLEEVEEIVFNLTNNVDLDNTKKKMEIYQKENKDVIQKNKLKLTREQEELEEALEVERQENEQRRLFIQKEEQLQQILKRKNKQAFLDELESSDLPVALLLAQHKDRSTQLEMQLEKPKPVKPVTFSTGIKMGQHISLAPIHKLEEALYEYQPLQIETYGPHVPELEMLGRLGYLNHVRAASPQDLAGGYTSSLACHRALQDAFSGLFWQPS
T2 sequence (Q00535 whole entry): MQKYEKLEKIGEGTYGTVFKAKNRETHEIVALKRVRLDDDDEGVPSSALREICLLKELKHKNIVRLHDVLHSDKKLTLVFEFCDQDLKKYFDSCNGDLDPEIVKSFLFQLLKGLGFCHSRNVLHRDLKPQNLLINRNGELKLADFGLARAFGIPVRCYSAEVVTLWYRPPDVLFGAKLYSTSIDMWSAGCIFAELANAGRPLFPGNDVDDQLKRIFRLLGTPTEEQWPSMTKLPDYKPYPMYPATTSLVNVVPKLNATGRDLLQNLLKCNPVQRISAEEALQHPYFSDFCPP
T2 sequence (Q15078 whole entry partner): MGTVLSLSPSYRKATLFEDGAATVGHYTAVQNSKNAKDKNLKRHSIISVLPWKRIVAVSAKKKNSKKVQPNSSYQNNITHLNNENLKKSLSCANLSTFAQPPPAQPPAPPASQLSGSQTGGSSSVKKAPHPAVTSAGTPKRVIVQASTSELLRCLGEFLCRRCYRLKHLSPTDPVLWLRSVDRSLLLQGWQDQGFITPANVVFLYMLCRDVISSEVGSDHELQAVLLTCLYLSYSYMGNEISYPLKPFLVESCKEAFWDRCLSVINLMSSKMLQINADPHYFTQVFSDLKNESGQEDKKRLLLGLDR

Row | remaining activity at 0.1 µM (CDK7/cyclin H/MAT1) [%] | remaining activity at 1 µM (CDK7/cyclin H/MAT1) [%] | remaining activity at 0.1 µM (CDK5/p35) [%] | remaining activity at 1 µM (CDK5/p35) [%] | remaining activity at 0.1 µM (CDK9/Cyclin T1) [%] | remaining activity at 1 µM (CDK9/Cyclin T1) [%] | IC50 (CDK1/cyclin B; [3]) [nM] | melting point [°C] | SMILES | IC50 (Hep3B) [nM] | Wound area ([1]; 100 nM) | Wound area ([1]; 1000 nM) | branching points, number of tubes, total tube length and mean tube length (HUVEC cells) | IC50 (CDK9/Cyclin T1; Table 12, read-out: IC50, CDK9/cyklin T) [nM] | IC50 (CDK1/cyclin B; Table 12, read-out: IC50, CDK1/cyklin B) [nM] | IC50 ([2]; 24 h) [nM] | IC50 ([2]; 72 h) [nM] | inhibition of migration (in words) ([1]; 100 nM)
1 | 47.7 | 16.5 | 26 | 4.31 | 19.6 | 1.78 | 49 | 151 to 153 | NC1CCC(Nc2nc(NCc3ccc(-c4cccs4)nc3)c3ncn(C4CCCC4)c3n2)CC1 (stereo not drawn) [BP30, N^2-(4-amino-cyclohexyl)-9-cyclopentyl-N^6-(6-thiophen-2-yl-pyridin-3-ylmethyl)-9H-purine-2,6-diamine] | 77 | ++ | ++ |  |  |  | 20400 | 80 | Significant inhibition of migration
2 | 54.1 | 24.1 | 49.2 | 23.6 | 32.6 | 1.03 | 118 | 184 to 186 | COc1ccccc1-c1ccc(CNc2nc(NC3CCC(N)CC3)nc3c2ncn3C2CCCC2)cn1 (stereo not drawn) [BP18, N^2-(4-amino-cyclohexyl)-9-cyclopentyl-N^6-[6-(2-methoxy-phenyl)-pyridin-3-ylmethyl]-9H-purine-2,6-diamine] | 233 | + | ++ |  |  |  | > 50000 | 520 | 
3 | 48 | 17.3 | 47.6 | 19.4 | 21.1 | 0.59 | 47 | 202 to 203 | NC1CCC(Nc2nc(NCc3ccc(-c4ccccc4O)nc3)c3ncn(C4CCCC4)c3n2)CC1 (stereo not drawn) [BP20, N^2-(4-amino-cyclohexyl)-9-cyclopentyl-N^6-[6-(2-hydroxy-phenyl)-pyridin-3-ylmethyl]-9H-purine-2,6-diamine] | 32 | ++ | ++ | significantly reduced |  |  | 29200 | 570 | Significant inhibition of migration

Row | SMILES | remaining activity at 0.1 µM (CDK7/cyclin H/MAT1) [%] | remaining activity at 1 µM (CDK7/cyclin H/MAT1) [%] | remaining activity at 0.1 µM (CDK5/p35) [%] | remaining activity at 1 µM (CDK5/p35) [%] | remaining activity at 0.1 µM (CDK9/Cyclin T1) [%] | remaining activity at 1 µM (CDK9/Cyclin T1) [%] | IC50 (CDK1/cyclin B; [3]) [nM] | melting point [°C] | IC50 (Hep3B) [nM] | Wound area ([1]; 100 nM) | Wound area ([1]; 1000 nM) | branching points, number of tubes, total tube length and mean tube length (HUVEC cells) | IC50 (CDK9/Cyclin T1; Table 12, read-out: IC50, CDK9/cyklin T) [nM] | IC50 (CDK1/cyclin B; Table 12, read-out: IC50, CDK1/cyklin B) [nM] | IC50 ([2]; 24 h) [nM] | IC50 ([2]; 72 h) [nM] | inhibition of migration (in words) ([1]; 100 nM)
4 | NC1CCC(Nc2nc(NCc3ccc(-c4ccco4)nc3)c3ncn(C4CCCC4)c3n2)CC1 (stereo not drawn) [BP14, N^2-(4-amino-cyclohexyl)-9-cyclopentyl-N^6-(6-furan-2-yl-pyridin-3-ylmethyl)-9H-purine-2,6-diamine] | 54.8 | 23.9 | 37.8 | 24.8 | 22.3 | 0.73 | 50 |  | 58 | + | ++ | significantly reduced | 7 | 50 | > 50000 | 50 | 
